Measured values as given in a melting point compilation (Tetko et al.; mined from patent text by program, amines drawn as free bases though some values may be those of a salt).

Compound | melting point
COc1ccc(C(OCC2OC(n3cc(C)c(=O)[nH]c3=O)CC2O[Si](C)(C)C(C)(C)C)(c2ccccc2)c2ccc(OC)cc2)cc1 (stereo not drawn) | 214 °C
CC(C)=CCN1CCc2c(sc(N)c2C(=O)c2ccc(Cl)cc2)C1 | 118 to 120 °C
COCOc1ccc(CSc2cnn(C(C)(C)C)c(=O)c2Cl)cc1 | 50 to 54 °C
Nc1nc2ccccc2c2c1nc1n2C(COCc2ccc(F)cc2)COC1 (stereo not drawn) | 134 to 137 °C
CC(=O)S[C@H]1CO[C@@H](c2ccccc2)OC1 | 94 to 95 °C
C[C@H](NC(=O)CCS)C(=O)O | 64 °C
OCCNc1c2c(nc3cn[nH]c13)CCCC2 | 205 to 210 °C
CC(=O)NCc1cc(C(C)=O)ccc1Cl | 93.1 to 93.7 °C
COc1cc2cnnc(N3CCC(CCN(C)C(=O)NC4CCCCC4)CC3)c2cc1OC | 204 to 206 °C
C[C@@H]1CN(Cc2ccccc2)C[C@H]1N (relative stereo) | 74 to 80 °C
Cc1c[nH]c(-c2ccc(OCC(O)CNC3CC3)cc2)n1 (stereo not drawn) | 150 to 154 °C
CN(C)CCCCCC=C(NC(=O)C1CC1(C)C)C(=O)O (stereo not drawn) | 101 to 112 °C
N#CC(CCN1C2CCC1CC2)(c1ccccc1)c1ccccc1 | 79 to 81 °C
Cc1c(C)c2c(c(C)c1N)CC(C)(CCc1ccc(F)cc1)O2 (stereo not drawn) | 62 to 63 °C
N#CN=C(N)Cc1ccc2c(c1)Nc1nccnc1S2 | 218 to 219 °C
C=Cc1c(F)c(F)c(F)c2c1c(=O)c(C(=O)OCC)cn2C1CC1 | 188 to 189 °C
O=[N+]([O-])c1ccc(CS(=O)(=O)NCCc2ccccc2)cc1 | 101 to 103 °C
O=C1C=C(Oc2ccc(C(F)(F)F)cc2)C(O)O1 (stereo not drawn) | 87 to 89 °C
CCOc1ccc(CC2CCN(CCCCNC(=O)c3ccc(-c4ccc(C(F)(F)F)cc4)cc3)CC2)c(OCC)c1 | 136 to 137 °C
COc1ccc(C(C)OC)c(OC)c1C(O)c1cn(C(c2ccccc2)(c2ccccc2)c2ccccc2)cn1 (stereo not drawn) | 96 to 99 °C
CS(=O)(=O)Nc1ccc(F)cc1OCCCN1CCC(OC(c2ccccc2)c2ccccc2)CC1 | 52 to 56 °C
CCOC(=O)C1=C(COCC(C)(O)Cn2cncn2)NC(C)=C(C(=O)OC)C1c1cccc(Cl)c1Cl (stereo not drawn) | 149 to 160 °C
Nc1nc2c(c(=O)[nH]1)n(CC(=O)c1ccc(Cl)cc1)c(=O)n2C1OC(CO)C(O)C1O (stereo not drawn) | > 230 °C
CCCC1N(C)c2cccc3cccc(c23)N1C | 70 to 71 °C
CCOC(=O)CCSc1nnsc1-c1ccccc1 | 57.5 to 58.5 °C

Compound | melting point
O=[N+]([O-])c1cc(Cl)cc(Cc2cc(Cl)cc([N+](=O)[O-])c2O)c1O | 163 to 170 °C
O=C(NCC(F)(F)F)c1nn(-c2ccc(F)cc2F)c2c1C1CCC2C1 (stereo not drawn) | 149 to 152 °C
c1coc(C2=NOCCS2)c1 | 147 to 150 °C
c1cn(CC2CCCCC2)cn1 | 25 to 30 °C
N#Cc1cc(F)cc2c1OCCC21SC(=O)NC1=O (stereo not drawn) | 230 to 232 °C
N#CC1=C(c2ccccc2)Nc2n[nH]cc2C1c1ccccc1C#N (stereo not drawn) | 148 °C
CS(=O)c1ccc(-n2cnc(-c3ccc(F)cc3)c2-c2ccncc2)cc1 (stereo not drawn) | 202 to 203 °C
O=Cc1cnc(Cl)c(Cl)c1 | 65 °C
CC12CCC(=O)C(N)=C1CCC1C2CCC2(C)C(OC3CC3)CCC12 (stereo not drawn) | 85 to 88 °C
NS(=O)(=O)C1C=CC=CC1(CCNC(=O)C=Cc1cccs1)OCc1ccccc1 (stereo not drawn) | 177 °C
C(=Cc1ccc(OCCCCc2nnn[nH]2)cc1)c1ccncc1 | 158 to 159 °C
CCCc1cc2ccc(CC(=O)O)cc2[nH]1 | 85 to 87 °C
CC(C)NCCCC(O)c1ccccc1-c1ccccc1 (stereo not drawn) | 78 to 80 °C
CCCCCCCCCCCCc1cc2cc(C(=O)OCC)ccc2[nH]1 | 77 to 79 °C
C/C(=C\COC(=O)c1ccccc1)CCc1c(C)c(O)c(C)c(C)c1O | 112 to 114 °C
Cc1c([N+](=O)[O-])c(=O)n(C)c(=O)n1C | 152 °C
CC(C)(O)CN1c2cccnc2C(N)=CC1Cc1ccccc1 (stereo not drawn) | 211 to 213 °C
C#CCOc1cc(-n2ncc(=O)n(C)c2=O)c(Cl)cc1Cl | 119 to 120 °C
CCCC1=C(C(=O)OCC)C(c2cccc(Cl)c2Cl)c2c[nH]nc2N1 (stereo not drawn) | 220 °C
C=CCc1c(Cl)nc(NC=O)nc1Cl | 85 to 86 °C
O=C(NC(c1ccccc1)(c1ccccc1)c1ccccc1)c1ccccc1 | 200 to 202 °C
CC(C)NC1=NS(=O)(=O)c2c(Cl)cccc2N1 | 144 to 146 °C
COC(=O)C(C)Oc1ccc(C(C)=O)cc1 (stereo not drawn) | 54.8 °C
O=C1CCCc2cc(I)ccc21 | 77 to 78 °C
CC(=O)COC1CC2C3CCC4=CC(=O)CCC4(C)C3(F)C(O)CC2(C)C1(O)C(=O)CO (stereo not drawn) | 203 to 208 °C

Continued, values first:

melting point | Compound
341 to 343 °C | Cn1nc(-c2cnc3[nH]cc(C(=O)NC4CCCC4)c3n2)c2ccc(Cl)cc21
90 °C | COC(C)=CC(=O)Nc1cccc(C(F)(F)F)c1
215 °C | O=C1NCN=C(c2ccccc2)c2ccccc21
172 °C | CN(C)c1ccc(C2=NC[C@@H](OC(=O)Nc3ccccc3)[C@H](c3ccccc3)O2)cc1 (racemic)
62 to 65 °C | CC(C)n1c(/C=C/C(O)CC(O)CC(=O)OC(C)(C)C)c(-c2ccc(F)cc2)c2ncccc21 (stereo not drawn)
147 to 149 °C | CNCCSC1=Cc2ccccc2Sc2ccc(O)cc21
275 to 278 °C | CNC(=O)c1ccc(C)c(-c2nc(S(C)(=O)=O)nc3c2CNC(=O)N3c2c(F)cccc2F)c1
79 °C | COC(=O)CS(=O)C(C)c1ccc(-c2ccccc2F)cc1 (stereo not drawn)
233 to 235 °C | CC(C)n1nc(-c2nc(C(=O)O)c(N)nc2-c2ccccc2)ccc1=O
158 to 160 °C | CCOC(=O)c1cc2ccccc2nn1
115 to 119 °C | C[C@@H](NC(=O)c1c(N)cc(Cl)cc1Cl)c1ccccc1
212 to 215 °C | O=C(NCCC(=O)N1CCOCC1)c1ccc(-c2ccc3nnn(Cc4ccc5ncccc5c4)c3n2)cc1F
215 to 218 °C | Cc1ccc2nc3c(C)cc(=O)c(Cl)c-3sc2c1
68.5 to 70.5 °C | COc1cc(C(C)=O)ccc1OCCCCCl
93 °C | Cc1ccc2cc(-c3cccc4ccccc34)nc(Cl)c2c1
282 °C | CCCC(=O)Nc1cccc2c1C(=O)c1c-2n[nH]c1-c1ccc(OC)cc1
98 to 100 °C | COc1cccc2sc(-c3ccc(C)cc3)nc12
170 to 172 °C | O=c1nc(-c2ccco2)sc2ccccc12
55 °C | Cc1nc(Br)n(COCc2ccccc2)c1Sc1ccccc1
80 to 81 °C | Cc1cc2c(c(C)c1NCc1ccccc1)CC(C)(C)O2
233 to 235 °C | COC(=O)/C=C\C(=O)Nc1ccc2c(=O)n3c(nc2c1)C(=Cc1ccccc1)CC3
107 to 108 °C | COc1cc(C(=O)Cc2ccccc2)ccc1O
144 to 146 °C | COC(=O)c1ccc(Oc2ccc(N)cc2C(=O)OC)cc1
142 °C | CN1CCN(C(=O)Nc2cccc3nc(NC4CCc5ccccc54)ccc23)CC1 (stereo not drawn)
168 to 169 °C | COC(C)(C)c1ccc(-c2cc(-c3c[nH]nc3-c3cccc(C)n3)ccc2F)nc1
163 to 166 °C | COc1ccc(-c2cc3ccc(OC)cc3n2C)cc1
209 to 211 °C | O=C(O)COc1cc2cc(-c3ccccc3)sc2c(Cl)c1Cl

melting point | Compound
174 to 175 °C | COc1ccnc(CCc2nc3cc(-c4ccc(S(=O)(=O)N5CCC(C(=O)c6ccccc6)CC5)cc4)cnc3[nH]2)c1
209 to 210 °C | O=c1oc2ccc(-c3ccc(F)cc3F)cc2c(=O)n1-c1ccc(C(F)(F)F)cc1
148 °C | COC(=O)c1ccc2cc(-c3ccc(C(C)(C)C)cc3)oc2c1
237 °C | CC(=O)C1=C(O)C(=C(C)Nc2cccc(S(N)(=O)=O)c2)C(=O)OC1=O
186 to 190 °C | O=c1c2cc(O)ccc2oc2c(CO)ccc(NCCN3CCCC3)c12
90 to 91 °C | COCc1nnc(-c2ccc3occ(-c4cccc(OC(F)(F)F)c4)c3c2)o1
159 to 162 °C | Cc1ccc(N2N=C3c4cc(OCCCN(C)C)ccc4CCC3CC2=O)cc1 (stereo not drawn)
105 °C | COc1nccc(N[C@H]2CC[C@H](c3ccccc3)CC2)c1Br
134 to 135 °C | CCOP(=O)(Cc1ccc(NC(=O)CCc2cnoc2-c2ccc(F)cc2)cc1)OCC
216 to 217 °C | O=C(O)c1cc2c3c(ccc2[nH]1)OC[C@H](CO)O3
234 to 236 °C | CC(=O)c1ccc2c(c1)C(C(=O)Nc1cccc(C(=O)Nc3ccc(Br)cc3)c1)C(=O)N2C (stereo not drawn)
181 to 183 °C | CCc1oc2ccccc2c1C(=O)NCc1ccc2c(Br)c(OCC#N)ccc2c1
146 to 148 °C | COc1ccccc1N1CCN(CCc2c(C)c3ccc(OC)c(OC)c3oc2=O)CC1
64 to 66 °C | CCOCc1cc2ccc(OC)cc2oc1=O
236 to 237 °C | COc1ccc(C(=O)Oc2ccc(O)cc2)cc1C12CC3CC(CC(C3)C1)C2
238 to 240 °C | CCCc1nnc2n1N=C(c1ccc([N+](=O)[O-])cc1)c1cc(OC)c(Br)cc1C2
126 to 129 °C | C1=Cc2cccnc2Nc2ncccc21
283 to 285 °C | Cc1nccc2[nH]c(=O)c(N)cc12
188 to 189 °C | O=C(Nc1cccnc1)N1CCc2cc(C(F)(F)F)ccc21
70 to 74 °C | CCC1c2cccn2-c2ccc(Cl)cc2N1C(=O)c1ccc(OC)cc1OC (stereo not drawn)
153 to 154 °C | CCOC(=O)c1c(CN2CCOCC2)nc2cc(OC)c(OC)cc2c1-c1ccccc1OC
152 to 156 °C | O=C(NCCCO)c1cc2ccccc2[nH]1
210 to 212 °C | COc1cc2occ(C(=O)Nc3cccnc3)c2cc1Br
246 to 247 °C | COc1cc2c(c3c1OC(C)(C)C3)C(c1cccc(NC(C)=O)c1)=NC(C)(C)C2
122 to 125 °C | CCCn1c(=O)c2ccc(NC(=O)CC3CCCC3)cc2n1Cc1ccc(C(=O)O)cc1OC
114 to 115 °C | CCOC(=O)COc1cc2c(c(Cl)c1Cl)C(=O)C(c1ccccc1)C2 (stereo not drawn)
